Data reported in EP1282604B1, “SUBSTITUTED CAPROLACTAM CARBONATES AND ETHERS AND THEIR USE AS ANTI-TUMOR AGENTS” (Novartis AG, priority 2000, dated 2001).

System: MDA-MB-435 tumor xenografts
Assay: Human tumor xenograft growth inhibition in athymic nude mice
Assay type: in vivo
Conditions: 3X/week for 3 weeks; for %T/C: * = p<0.05
Experimental: Utilizing this model, one can measure the ability of test compounds to inhibit the growth of human tumor xenografts growing subcutaneously (s.c.) in athymic nude mice. The histologic tumor type employed was MDA-MB-435 breast carcinoma for Ex.1 and 7 and A549 non-small cell lung carcinoma for Ex. 1-3.
MDA-MB-435 human breast carcinoma: Treatments were started 15 d post implantation (3 x 10^6 cells/mouse), when a mean tumor volume of approximately 45 mm^3 was reached. Ex.1 and 7 were administered iv at three times per week for 3 weeks (days 15, 17, 20, 22, 24, 27, 29, and 31), at 3.3, 10, and 33 µmol/kg. Doxorubicin was administered iv at 2 mg/kg using the same schedule. Each data point represents tumor growth (mean ± SEM), or body weight (mean), with an initial group size of n = 8, from a representative experiment performed twice. An asterisk (*) indicates p < 0.05 using a one-tailed Student's t-test.
Toxicity was monitored by recording average group body weights twice weekly, and by daily observation of general health. Efficacy was monitored by taking measurements of tumor length, width, and depth weekly using digital calipers coupled to automated data collectors. Mean tumor volume (MTV) at initiation of therapy was subtracted from final MTV in order to express the actual tumor growth during treatment (A MTV). Anti-tumor activity was expressed as %T/C (A MTV of treated group ÷ Δ MTV of control group X100%). Statistical significance was evaluated using a one-tailed Student's t-test (p<0.05).

With `CCCCCCCCCCCOCC(=O)O[C@@H]1CC[C@H](NC(=O)[C@H](OC)[C@H](O)[C@@H](O)[C@H](O)/C=C/C(C)(C)C)C(=O)NC1` [Ex. 7, (2R, 3R, 4S, 5R, 6E)-3,4,5-trihydroxy-2-methoxy-8,8-dimethyl-N-[(3S, 6R)-hexahydro-2-oxo-6-([[undecyloxy]acetyl]oxy)-2H-azepin-3-yl]non-6-enonamide] the Dead/Total (3.3 µmol/kg iv) was 0/8, the “Δ MTV” value (3.3 µmol/kg iv) was 165 mm^3 and the “%T/C” value (3.3 µmol/kg iv) was 102%. For the same compound, the Dead/Total (10 µmol/kg iv) was 0/8, the “Δ MTV” value (10 µmol/kg iv) was 103 mm^3 and the “%T/C” value (10 µmol/kg iv) was 64%. For the same compound, the Dead/Total (33 µmol/kg iv) was 0/8, the “Δ MTV” value (33 µmol/kg iv) was 48 mm^3 and the “%T/C” value (33 µmol/kg iv) was 30* %.
